# Laboratory results: patent publication US4774232A, “Bile-substituting method of treatment for the promotion of fat digestion” (Chinoin Gyogyszer Es Vegyeszeti Termak Ek Gyara Rt, priority 1985, dated 1988)
# Legend:
# [1] = test system: intact rats; assay: Absorption of 3H-stearic acid with oral DIMEB in intact rats; assay type: in vivo, CFY female rats; conditions: for Radioactivity in 10 ml of blood: 11.3 mg 3H-stearic acid + 50 mg DIMEB oral
# Description: The effect of DIMEB on the absorption of ^3 H-stearic acid was studied in intact rats. The aim of this experiment was to make clear if the absorption of stearic acid was stimulated by DIMEB under the conditions of physiological bile functions. The animals were starved overnight before and during the experiment but received water ad libitum. One group of the experimental animals (CFY female rats with an average body weight of 180 g; 3 animals ) received 13 mg of ^3 H-stearic acid (specific radioactivity: 147.22 kBq/mg), whereas the other group (3 animals) was given 11.3 mg of ^3 H-stearic acid and 50 mg of DIMEB in 2 ml of distilled water. The substances were suspended in the distilled water ultrasonically. Thereafter, the radioactivity level of the blood was measured at various time intervals by using the liquid scintillation method (Table X).
# [2] = test system: mice; assay: Toxicity on mice; assay type: in vivo; conditions: doses up to 3000 mg/kg of body-weight
# [3] = test system: intact rats; assay: Lipid absorption in intact rats after oral vegetable oil with DIMEB; assay type: in vivo; conditions: for Plasma triglyceride concentration / Free fatty acid concentration in the plasma: normal rats; for Plasma triglyceride concentration: 2 ml vegetable oil + 50 mg DIMEB oral; for Free fatty acid concentration in the plasma: 2 ml vegetable oil + DIMEB oral
# Description: The effect of DIMEB on the absorption of a vegetable oil was investigated in intact rats. The aim of this experiment was to elucidate whether the emulsification and intestinal absorption of the vegetable oil were stimulated by DIMEB in addition to the physiological bile functions. […] Thereafter, the triglyceride and free fatty acid concentration of the blood plasma were examined at various intervals. (Tables II and III). The triglyceride concentration of the plasma was determined by using the method of E. Van Handel [Clin. […] G. Dumcombe [Biochem.
# [4] = Water solubility; assay type: physicochemical
# [5] = test system: bile-deficient rats; assay: Absorption of 3H-stearic acid with oral DIMEB in bile-deficient rats (Example 11); assay type: in vivo, CFY female rats; conditions: for Radioactivity in 10 ml of blood: 23.5 mg 3H-stearic acid + 60 mg DIMEB oral
# Description: The substitution by DIMEB of the bile in bile-deficiency was studied in rats after ligating the bile duct.
# After being starved for 24 hours, the animals (CFY female rats with an average body weight of 150 g) were subjected to a bile duct-ligation under nembutal anaesthesia. The absorption was investigated in the 48th hour after starving the animals overnight. The animals were starved in the course of the examination, too, but received water ad libitum. One group (consisting of 4 animals) received 22.2 mg of ^3 H-stearic acid (specific radioactivity: 92.5 kBq/mg), whereas the other group (consisting of 4 animals) was administered 23.5 mg of ^3 H-stearic acid and 60 mg of DIMEB in 2 ml of distilled water. The substances were suspended ultrasonically in the distilled water. Thereafter, the radioactivity level of the blood was measured at various intervals by using the liquid scintillation method (Table XII).
smiles,measurement,setting,value
"COC[C@H]1O[C@@H]2O[C@H]3[C@H](O)[C@@H](OC)[C@@H](O[C@H]4[C@H](O)[C@@H](OC)[C@@H](O[C@H]5[C@H](O)[C@@H](OC)[C@@H](O[C@H]6[C@H](O)[C@@H](OC)[C@@H](O[C@H]7[C@H](O)[C@@H](OC)[C@@H](O[C@H]8[C@H](O)[C@@H](OC)[C@@H](O[C@H]1[C@H](O)[C@H]2OC)O[C@@H]8COC)O[C@@H]7COC)O[C@@H]6COC)O[C@@H]5COC)O[C@@H]4COC)O[C@@H]3COC [DIMEB, heptakis(2,6-di-O-methyl)-β-cyclodextrin]",Radioactivity in 10 ml of blood,"[1]; 1 h, animal 4",1.71 percentage
same,Radioactivity in 10 ml of blood,"[1]; 1 h, animal 5",1.74 percentage
same,Radioactivity in 10 ml of blood,"[1]; 1 h, animal 6",2.23 percentage
same,Radioactivity in 10 ml of blood,"[1]; 1 h, mean",1.89 percentage
same,Radioactivity in 10 ml of blood,"[1]; 2 h, animal 4",1.84 percentage
same,Radioactivity in 10 ml of blood,"[1]; 2 h, animal 5",1.88 percentage
same,Radioactivity in 10 ml of blood,"[1]; 2 h, animal 6",2.00 percentage
same,Radioactivity in 10 ml of blood,"[1]; 2 h, mean",1.91 percentage
same,Radioactivity in 10 ml of blood,"[1]; 3 h, animal 4",2.03 percentage
same,Radioactivity in 10 ml of blood,"[1]; 3 h, animal 5",1.75 percentage
same,Radioactivity in 10 ml of blood,"[1]; 3 h, animal 6",2.13 percentage
same,Radioactivity in 10 ml of blood,"[1]; 3 h, mean",1.97 percentage
same,Radioactivity in 10 ml of blood,"[1]; 4 h, animal 4",2.12 percentage
same,Radioactivity in 10 ml of blood,"[1]; 4 h, animal 5",1.71 percentage
same,Radioactivity in 10 ml of blood,"[1]; 4 h, animal 6",1.99 percentage
same,Radioactivity in 10 ml of blood,"[1]; 4 h, mean",1.94 percentage
same,Radioactivity in 10 ml of blood,"[1]; 5 h, animal 4",2.10 percentage
same,Radioactivity in 10 ml of blood,"[1]; 5 h, animal 5",1.76 percentage
same,Radioactivity in 10 ml of blood,"[1]; 5 h, animal 6",2.00 percentage
same,Radioactivity in 10 ml of blood,"[1]; 5 h, mean",1.95 percentage
same,Radioactivity in 10 ml of blood,"[1]; 6 h, animal 4",2.16 percentage
same,Radioactivity in 10 ml of blood,"[1]; 6 h, animal 5",1.75 percentage
same,Radioactivity in 10 ml of blood,"[1]; 6 h, animal 6",2.04 percentage
same,Radioactivity in 10 ml of blood,"[1]; 6 h, mean",1.98 percentage
same,Radioactivity in 10 ml of blood,"[1]; 8 h, animal 4",2.16 percentage
same,Radioactivity in 10 ml of blood,"[1]; 8 h, animal 5",1.84 percentage
same,Radioactivity in 10 ml of blood,"[1]; 8 h, animal 6",1.94 percentage
same,Radioactivity in 10 ml of blood,"[1]; 8 h, mean",1.98 percentage
same,Radioactivity in 10 ml of blood,"[1]; 10 h, animal 4",2.20 percentage
same,Radioactivity in 10 ml of blood,"[1]; 10 h, animal 5",2.02 percentage
same,Radioactivity in 10 ml of blood,"[1]; 10 h, animal 6",2.21 percentage
same,Radioactivity in 10 ml of blood,"[1]; 10 h, mean",2.14 percentage
same,Radioactivity in 10 ml of blood,"[1]; 24 h, animal 4",2.84 percentage
same,Radioactivity in 10 ml of blood,"[1]; 24 h, animal 5",2.94 percentage
same,Radioactivity in 10 ml of blood,"[1]; 24 h, animal 6",2.39 percentage
same,Radioactivity in 10 ml of blood,"[1]; 24 h, mean",2.72 percentage
same,"Radioactivity of the blood, percent of the administered activity","[1]; 24th hour, both groups",2.7%
same,Absorption-enhancing effect on 3H-stearic acid,"[1]; physiological bile functions, 50 mg DIMEB",did not show any absorption-enhancing effect
same,Toxic phenomena,[2],no toxic phenomena
same,Increase of plasma triglyceride concentration,"[3]; intact rats, oil + 50 mg DIMEB, 4th hour",more than 100%
same,Plasma triglyceride concentration,[3]; Hour 1,44 ± 6 mg/100 ml
same,Plasma triglyceride concentration,[3]; Hour 2.5,61 ± 18 mg/100 ml
same,Plasma triglyceride concentration,[3]; Hour 4,121 ± 7 mg/100 ml
same,Plasma triglyceride concentration,[3]; Hour 6,122 ± 15 mg/100 ml
same,Free fatty acid concentration in the plasma,[3]; Hour 1,326 ± 15 mg/100 ml
same,Free fatty acid concentration in the plasma,[3]; Hour 2.5,494 ± 183 mg/100 ml
same,Free fatty acid concentration in the plasma,[3]; Hour 4,641 ± 126 mg/100 ml
same,Free fatty acid concentration in the plasma,[3]; Hour 6,347 ± 65 mg/100 ml
same,Water solubility,[4],very high water solubility
same,Radioactivity in 10 ml of blood,"[5]; 1 h, animal 5",1.18 percentage
same,Radioactivity in 10 ml of blood,"[5]; 1 h, animal 6",1.41 percentage
same,Radioactivity in 10 ml of blood,"[5]; 1 h, animal 7",1.66 percentage
same,Radioactivity in 10 ml of blood,"[5]; 1 h, animal 8",0.50 percentage
same,Radioactivity in 10 ml of blood,"[5]; 1 h, mean",1.19 percentage
same,Radioactivity in 10 ml of blood,"[5]; 2 h, animal 5",1.46 percentage
same,Radioactivity in 10 ml of blood,"[5]; 2 h, animal 6",1.52 percentage
same,Radioactivity in 10 ml of blood,"[5]; 2 h, animal 7",1.52 percentage
same,Radioactivity in 10 ml of blood,"[5]; 2 h, animal 8",0.64 percentage
same,Radioactivity in 10 ml of blood,"[5]; 2 h, mean",1.28 percentage
same,Radioactivity in 10 ml of blood,"[5]; 3 h, animal 5",1.29 percentage
same,Radioactivity in 10 ml of blood,"[5]; 3 h, animal 6",1.63 percentage
same,Radioactivity in 10 ml of blood,"[5]; 3 h, animal 7",1.37 percentage
same,Radioactivity in 10 ml of blood,"[5]; 3 h, animal 8",0.61 percentage
same,Radioactivity in 10 ml of blood,"[5]; 3 h, mean",1.22 percentage
same,Radioactivity in 10 ml of blood,"[5]; 4 h, animal 5",1.42 percentage
same,Radioactivity in 10 ml of blood,"[5]; 4 h, animal 6",1.67 percentage
same,Radioactivity in 10 ml of blood,"[5]; 4 h, animal 7",1.56 percentage
same,Radioactivity in 10 ml of blood,"[5]; 4 h, animal 8",0.60 percentage
same,Radioactivity in 10 ml of blood,"[5]; 4 h, mean",1.31 percentage
same,Radioactivity in 10 ml of blood,"[5]; 5 h, animal 5",1.39 percentage
same,Radioactivity in 10 ml of blood,"[5]; 5 h, animal 6",1.73 percentage
same,Radioactivity in 10 ml of blood,"[5]; 5 h, animal 7",1.54 percentage
same,Radioactivity in 10 ml of blood,"[5]; 5 h, animal 8",0.69 percentage
same,Radioactivity in 10 ml of blood,"[5]; 5 h, mean",1.34 percentage
same,Radioactivity in 10 ml of blood,"[5]; 6 h, animal 5",1.41 percentage
same,Radioactivity in 10 ml of blood,"[5]; 6 h, animal 6",1.92 percentage
same,Radioactivity in 10 ml of blood,"[5]; 6 h, animal 7",1.76 percentage
same,Radioactivity in 10 ml of blood,"[5]; 6 h, animal 8",0.73 percentage
same,Radioactivity in 10 ml of blood,"[5]; 6 h, mean",1.45 percentage
same,Radioactivity in 10 ml of blood,"[5]; 8 h, animal 5",1.43 percentage
same,Radioactivity in 10 ml of blood,"[5]; 8 h, animal 6",1.90 percentage
same,Radioactivity in 10 ml of blood,"[5]; 8 h, animal 7",1.85 percentage
same,Radioactivity in 10 ml of blood,"[5]; 8 h, animal 8",0.72 percentage
same,Radioactivity in 10 ml of blood,"[5]; 8 h, mean",1.47 percentage
same,Radioactivity in 10 ml of blood,"[5]; 10 h, animal 5",1.57 percentage
same,Radioactivity in 10 ml of blood,"[5]; 10 h, animal 6",1.56 percentage
same,Radioactivity in 10 ml of blood,"[5]; 10 h, animal 7",1.45 percentage
same,Radioactivity in 10 ml of blood,"[5]; 10 h, animal 8",0.89 percentage
same,Radioactivity in 10 ml of blood,"[5]; 10 h, mean",1.37 percentage
same,Radioactivity in 10 ml of blood,"[5]; 24 h, animal 5",1.50 percentage
same,Radioactivity in 10 ml of blood,"[5]; 24 h, animal 6",1.94 percentage
same,Radioactivity in 10 ml of blood,"[5]; 24 h, animal 7",1.59 percentage
same,Radioactivity in 10 ml of blood,"[5]; 24 h, animal 8",1.95 percentage
same,Radioactivity in 10 ml of blood,"[5]; 24 h, mean",1.74 percentage
same,Blood level relative to animals treated with stearic acid alone,[5]; 24th hour,2 times
same,Blood radioactivity relative to animals treated with stearic acid alone,[5]; time not given,4.4 times
